Measurements: patent US9914910B2, “Methods of preserving and protecting pancreatic beta cells and treating or preventing diabetes by inhibiting NOX-1” (Eastern Virginia Medical School, priority 2013, dated 2018)

System: primary mouse islets
Assay: Apoptosis by YO-PRO-1 fluorescence microscopy after PIC
Assay type: cell-based
Experimental: Human donor islets were obtained from integrated islet distribution project (http://iidp.coh.org) and cultured in CMRL media (Mediatech, Manassas, Va.). Mouse islets were freshly isolated from 8-week old male C57BL/6J mice (Jackson Laboratory, Bar Harbor, Me.) by common bile duct cannulation and collagenase digestion. Islets were hand picked prior to use.
B. Fluorescence microscopy: Stimulated cells or islets were washed in cold PBS, and incubated for 30 mins at 40 C with cold PBS containing 1 μg/mL propidium iodide and 0.1 μM YO-PRO-1 (Life Technologies). For cell lines, five randomly fields per well were analyzed. For islets, all islets (>1000 um2 in size) were analyzed. Densitometric fluorescent value for YO-PRO-1 (green channel) was normalized to background and expressed proportional to cell occupied area (phase contrast). Images captured across three channels with Axiophot (Zeiss, Jena, Germany) with Axiovision (Zeiss) image analysis.
FIG. 1: Treatment of primary mouse islets with inflammatory cytokines (TNFα, IL-1β, IFNγ) induces islet/beta cell death (apoptosis) which can be measured in a fluorescent-based assay (green signal) using YO-PRO-1. […] The degree of cell death can be quantified by measuring the green signal. The graph is a quantitative analysis of multiple (≧4 visual fields in replicate wells). The detected relative fluorescent units (RFU) are plotted. […]

## CC(=O)c1ccc2c(c1)Nc1ccccc1S2 [ML171, 2-acetylphenothiazine]
1 μM, p<0.05
  cytokine induced cell death (YO-PRO-1 RFU): protected islets from cytokine induced cell death
10 μM, 24 hours
  reduction of PIC induced islet apoptosis: 86%±4%
